Experimental data: patent US20110135756A1, “COMPOSITIONS AND METHODS FOR PROTECTING SENSORY HAIR CELLS” (University of Washington, priority 2009, published 2011)
Entries after “also recorded” stand apart in the source; their conditions may differ. Structures can show the parent of a compound that is named as a salt.

What was measured:
bacteria = assay: Antibiotic efficacy of the ototoxic aminoglycoside in presence of protective drug; type: cell-based
[1] = test system: gentamicin entry into hair cells; assay: Gentamicin-conjugated Texas Red (GTTR) uptake imaging; type: in vivo, zebrafish (Danio rerio); conditions: protective drug at optimal dose; 50 uM GTTR for 3 min
Description: Gentamicin-conjugated Texas Red Imaging. […] Fish were anesthetized with MS222 and transferred to double wholemount slides for imaging using fluorescence microscopy on an automated stage (Marianas imaging system, Intelligent Imaging Innovations) with a Zeiss Axiovert 200M inverted microscope (Carl Zeiss). Each image contained a z-stack encompassing 2-3 neuromasts as determined by viewing under brightfield illumination. Each fish was imaged once and 5 fish were imaged for each treatment group. Control fish were treated with EM only (mock-treated) or with 3 min of 50 uM GTTR only.
GTTR Image analysis. […] Then 2-3 neuromasts per image were traced and converted to a mask field “Mask 1”. […] Then Boolean addition was used to create the neuromast mask (NM) by taking “Mask1” AND thresholded segment and the background mask (BG) by taking “Mask2” AND thresholded segment. Mean intensity, standard deviation of intensity, sum intensity and volume in voxels were calculated for NM and BG. To create an index of intensity, NM/BG was calculated for each fish and values for mock-treated fish were subtracted and multiplied by 100 to obtain “% intensity above background”.

[2] = test system: hearing and vestibular function; conditions: human, in vivo; cited from earlier work
[3] = test system: hair cells of the zebrafish lateral line; assay: Dose response testing: protection of zebrafish lateral line hair cells against toxin-induced hair cell death (DASPEI neuromast scoring); type: in vivo, zebrafish (Danio rerio)
Description: Animal care. Wildtype Larval zebrafish (Danio rerio) were produced via group matings of adult fish. […] Beginning at 4 days post-fertilization (dpf), fish were fed live paramecia or rotifers daily. Experiments were performed using 5 or 6 dpf larvae. The University of Washington Animal Care and Use Committee approved of the animal procedures described here.
Dose response testing. Drug screen “hits” were tested to determine minimum concentrations of drug and maximum concentrations of toxin that confer protection against hair cell death. All “hits” were tested against all four hair cell toxins regardless of whether a given “hit” was positive with a specific toxin in the screen. 5 or 6 dpf larvae were transferred to 6-well Corning Netwell baskets and placed in 6-well plates (Fisher Scientific) in EM with approximately 10 fish per basket. This allowed for easy transfer between treatment media. Drug and toxins were made up in 7 ml of EM. Larvae were pretreated for one hour in a dose of protective drug followed by cotreatment in protective drug and hair cell toxin. […] Then larvae were rinsed 4× and anesthetized with MS222. Larvae were transferred to glass depression slides and viewed on a Leica epifluorescent microscope with a DASPEI filter (Chroma Technologies, Brattleboro Vt.). […] To find minimum protective concentrations, doses of protective drug tested were 0, 0.5, 1, 5, 10, 50, 100 uM and toxin dose was held at the concentrations used for screening (see above). For those doses of putative protectants that killed the larvae, further doses were tested to determine if intermediate doses were optimal. For dose response curves finding maximum toxin dose at which protection occurs, dose of protective drug was held at previously determined optimal dose and toxin dose was varied as follows: […]

[4] = test system: hair cells of the zebrafish lateral line; assay: Pretreatment experiments (1 hr, 15 min or no pretreatment before 200 uM neomycin); type: in vivo, zebrafish (Danio rerio); conditions: for Pre-treatment time prior to aminoglycoside exposure giving greater effectiveness: zebrafish, in vivo
Description: Pretreatment experiments. […] Controls were mock treated or treated with neomycin only.

[5] = test system: hair cells of the zebrafish lateral line; assay: Screen of BIOMOL FDA Approved Drug Library for protection against toxin-induced hair cell death (YO-PRO1); type: in vivo, zebrafish (Danio rerio); conditions: 4 μg/ml library compound, 1 hr preincubation
Description: Drug Library. BIOMOL's FDA Approved Drug Library (Enzo Life Sciences Inc., Plymouth Meeting, Pa., USA (formerly BIOMOL International, L.P.)) was used to screen zebrafish larvae for compounds that protect against toxin-induced hair cell death. The library consists of 640 drugs dissolved at 2 mg/ml in dimethyl sulfoxide (DMSO). The drugs were aliquoted into eight 96-well plates with 80 drugs per plate and stored at 4 C during initial screening and re-testing.
Screening. Larvae were prelabeled with 2 μM YO-PRO1 (Invitrogen, Carlsbad, Calif. USA; Y3603) in embryo medium for 30 min and then rinsed three times. […]
Concentrations and incubation times were chosen based on previously determined dose-response in order to achieve maximal hair cell death at the lowest concentration of toxin (Ou et al. 2007; Owens et al. 2009). […] After incubation in library drug and hair cell toxin, larvae were anesthetized with 0.001% MS222 (3-aminobenzoic acid ethyl ester methanesulfonate; Sigma) and immediately viewed using fluorescence microscopy on an automated stage (Marianas imaging system, Intelligent Imaging Innovations) using a Zeiss Axiovert 200M inverted microscope (Carl Zeiss). Fish were scored on a scale from 0 to 2 with 2 corresponding to mostly healthy hair cells and a 0 corresponding to mostly dead hair cells. […]

sensory hair cells = assay: Zebrafish model of protection of sensory hair cells against ototoxins (PROTO1); conditions: in vivo
[6] = test system: hearing (threshold shift); type: in vivo, rat; conditions: rats; protectant 25 mg/kg intraperitoneally; kanamycin 25 mg/kg per day i.p. for two weeks
Description: Rats were injected with 25 mg/kg per day (intraperitoneal) kanamycin for two weeks, a treatment that induces a hearing loss similar to that observed in humans following aminoglycoside treatment. At higher frequencies, the hearing loss observed in rats treated with kanamycin (without protectant) is a threshold shift of 50 dB and at mid-frequencies a hearing loss observed is 30-40 dB threshold shift.
The PROTO1 was administered intraperitoneally at a dose of 25 mg/kg. The PROTO1 was given as a 3.33 mg/mL solution in 1:1:2:16 (DMSO:Cremophor EL:EtOH:PBS).

[7] = test system: cultured lung cancer cells; assay: Inhibition of growth of cultured lung cancer cells in presence of protective drug (in vitro); type: cell-based; conditions: in vitro testing
zebrafish hair cells = assay: Quinoline ring derivatives: pretreatment protection against neomycin-induced hair cell death (FIG. 1); type: in vivo; conditions: 5 dpf zebrafish; 0, 10, 50, 100 or 200 μM pretreatment; 200 μM neomycin
Description: FIG. 1 is a bar graph depicting results of cinchonine pretreatment, which protects against neomycin-induced hair cell death. Five day post-fertilization zebrafish were pretreated with 0, 10, 50, 100 or 200 μM cinchonine prior to treatment with 200 μM neomycin. […] The negative control represents fish not exposed to neomycin. Data bars are mean hair cell survival from 8 to 10 fish. Error bars represent standard deviation from the mean.
Five day post-fertilization zebrafish were pretreated with 0, 10, 50, 100 or 200 μM cinchonine prior to treatment with 200 μM neomycin. […] The negative control represents fish not exposed to neomycin. Data bars are mean hair cell survival from 8 to 10 fish. Error bars represent standard deviation from the mean.

CNCCC(Oc1ccc(C(F)(F)F)cc1)c1ccccc1 (stereo not drawn) [Fluoxetine HCl]
Effect on antibiotic efficacy of the ototoxic aminoglycoside (bacteria): without diminishing the antibiotic efficacy | Uptake (whether gentamicin is able to enter cells in the presence of protective drug) [1]: no block

N.N.[Cl][Pt][Cl] [cisplatin]
High frequency hearing loss (>8 kHZ) incidence [2]: ≤ 90%

CC/C(=C(\c1ccccc1)c1ccc(OCCN(C)C)cc1)c1ccccc1 [Tamoxifen citrate]
Effect on antibiotic efficacy of the ototoxic aminoglycoside (bacteria): without diminishing the antibiotic efficacy | Uptake (whether gentamicin is able to enter cells in the presence of protective drug) [1]: no block

NC(=NCc1ccccc1)NC(=O)c1nc(Cl)c(N)nc1N [Benzamil]
Uptake (whether gentamicin is able to enter cells in the presence of protective drug) [1]: attenuate

CC(COc1ccccc1)N(CCCl)Cc1ccccc1 (stereo not drawn) [Phenoxybenzamine HCl]
Protection of sensory hair cells against gentamicin ([3]; zebrafish, in vivo): protect against gentamicin | Effect on antibiotic efficacy of the ototoxic aminoglycoside (bacteria): without diminishing the antibiotic efficacy | Uptake (whether gentamicin is able to enter cells in the presence of protective drug) [1]: attenuate | Pre-treatment time prior to aminoglycoside exposure giving greater effectiveness [4]: 15 min

CN(C)C(=O)C(CCN1CCC(O)(c2ccc(Cl)cc2)CC1)(c1ccccc1)c1ccccc1 [Loperamide]
Protection of sensory hair cells against gentamicin ([3]; zebrafish, in vivo): protect against gentamicin | Protection of sensory hair cells against kanamycin ([3]; zebrafish, in vivo): protect against kanamycin | Effect on antibiotic efficacy of the ototoxic aminoglycoside (bacteria): without diminishing the antibiotic efficacy | Protection in library screen against aminoglycosides (neomycin, gentamicin, kanamycin) and/or cisplatin [5]: protects against all four toxins | Uptake (whether gentamicin is able to enter cells in the presence of protective drug) [1]: no block

CCN1CCc2c(sc(NC(=O)Nc3ccc(Cl)cc3)c2C(N)=O)C1 [PROTO1, 2-({[(4-chlorophenyl)amino]carbonyl}amino)-6-ethyl-4,5,6,7-tetrahydrothieno[2,3-c]pyridine-3-carboxamide]
Protection of sensory hair cells against ototoxins in the Zebrafish model (sensory hair cells): shown to protect | Protection against kanamycin-induced hearing loss [6]: significant protection against hearing loss

Fc1ccc([C@@H]2CCNC[C@H]2COc2ccc3c(c2)OCO3)cc1 [Paroxetine HCl]
Protection of sensory hair cells against cisplatin ([3]; zebrafish, in vivo): protective against cisplatin | Protection of sensory hair cells against gentamicin ([3]; zebrafish, in vivo): protect against gentamicin | Effect on antibiotic efficacy of the ototoxic aminoglycoside (bacteria): without diminishing the antibiotic efficacy | Uptake (whether gentamicin is able to enter cells in the presence of protective drug) [1]: attenuate | Effect on inhibition of growth of cultured lung cancer cells [7]: alters inhibition of growth of some cultured lung cancer cells at some doses and not at others

CCN(CC)CCCC(C)Nc1ccnc2cc(Cl)ccc12 (stereo not drawn) [Chloroquine diphosphate]
Protection of sensory hair cells against gentamicin ([3]; zebrafish, in vivo): protect against gentamicin | Effect on antibiotic efficacy of the ototoxic aminoglycoside (bacteria): without diminishing the antibiotic efficacy

CN(C)CCOc1ccc(/C(=C(/CCCl)c2ccccc2)c2ccccc2)cc1 [Toremifene citrate]
Effect on antibiotic efficacy of the ototoxic aminoglycoside (bacteria): without diminishing the antibiotic efficacy

CC(CCc1ccc(O)cc1)NCC(O)c1ccc(O)cc1 (stereo not drawn) [Ractopamine]
Protection of sensory hair cells against gentamicin ([3]; zebrafish, in vivo): protect against gentamicin; also recorded: protected | Protection of sensory hair cells against kanamycin ([3]; zebrafish, in vivo): protect against kanamycin; also recorded: protected | Protection of sensory hair cells from neomycin ([3]; zebrafish, in vivo): protected | Effect on antibiotic efficacy of the ototoxic aminoglycoside (bacteria): without diminishing the antibiotic efficacy | Uptake (whether gentamicin is able to enter cells in the presence of protective drug) [1]: block

C=C[C@H]1C[N@@]2CC[C@H]1C[C@@H]2[C@@H](O)c1ccnc2ccccc12 [cinchonine]
Hair cell survival after neomycin with cinchonine pretreatment (zebrafish hair cells): increasing hair cell survival

O=C(c1ccc(OCCN2CCCCC2)cc1)c1c(-c2ccc(O)cc2)sc2cc(O)ccc12 [Raloxifene HCl]
Protection of sensory hair cells against gentamicin ([3]; zebrafish, in vivo): protect against gentamicin | Effect on antibiotic efficacy of the ototoxic aminoglycoside (bacteria): without diminishing the antibiotic efficacy | Uptake (whether gentamicin is able to enter cells in the presence of protective drug) [1]: block

CSc1ccc2c(c1)C(N1CCN(C)CC1)Cc1ccccc1S2.O=C(O)/C=C\C(=O)O (stereo not drawn) [Methiothepin maleate]
Drug dose (optimal dose that confers protection against toxins) ([3]; 5 or 6 dpf larvae, toxin dose held at screening concentration): 10 µM | Protection of sensory hair cells against gentamicin ([3]; zebrafish, in vivo): protect against gentamicin | Effect on antibiotic efficacy of the ototoxic aminoglycoside (bacteria): without diminishing the antibiotic efficacy | Uptake (whether gentamicin is able to enter cells in the presence of protective drug) [1]: no block | Pre-treat (necessary pretreatment time before toxin exposure for effective protection) ([4]; followed by 1 hr cotreatment with 200 uM neomycin): 60 min | Pre-treatment time prior to aminoglycoside exposure giving greater effectiveness [4]: 60 min

O=C1NCN(c2ccccc2)C12CCN(CCCC(c1ccc(F)cc1)c1ccc(F)cc1)CC2 [Fluspirilene]
Effect on antibiotic efficacy of the ototoxic aminoglycoside (bacteria): without diminishing the antibiotic efficacy | Uptake (whether gentamicin is able to enter cells in the presence of protective drug) [1]: no block
